Reference: publication PMC7662308, “Hevein-Like Antimicrobial Peptides Wamps: Structure–Function Relationship in Antifungal Activity and Sensitization of Plant Pathogenic Fungi to Tebuconazole by WAMP-2-Derived Peptides” (International Journal of Molecular Sciences, 2020)
Values after ≈ are worked out from the molar mass of the structure shown. Read-outs that look alike come from different tables or passages of the source. Residues, ends and D or L forms follow the SMILES beside them.

What was measured:
A. alternata [1] = assay type: cell-based, Alternaria alternata
Text: (§1) Conidia of Fusarium spp., A. alternata, B. sorokiniana, and C. cucumerinum were collected from the surface of their colonies on potato dextrose agar by flooding the mycelium with sterilized distilled water (SDW) and gently rubbing with a glass rod, while P. nodorum spores were obtained by washing off wheat kernels infested with the pathogen. The spores (conidia) were suspended in SDW (control) or in SDW-dissolved WAMPs, WAMP-2-derived peptides, the fungicide or their mixtures to a final concentration of 10^4–10^5 spores/mL and incubated at 20–22 °C for 5–6 or 12–16 h depending on the pathogen species. The number of germinated and non-germinated spores (500 ones of each pathogen per treatment) was counted in wells of a polystyrene culture plate using an inverted microscope followed by calculation of the percent of inhibition of the spore germination as compared to control.
(§2) For each pathogen, tests on evaluation of antifungal or sensitizing activity of WAMP homologues or their peptides (three replications per treatment, 500 counted conidia in each one) included at least two independent experimental series. Mean values, standard deviations (SD), standard errors (SE), and the significance of differences (p ≤ 0.05) of the means between treatments and controls (t-test for the independent variables) were determined using […] v. 6.1 software (StatSoft Inc., Tulsa, OK, USA).

F. oxysporum = assay type: cell-based, Fusarium oxysporum
Text: as §1, §2

B. sorokiniana [2] = assay type: cell-based, Bipolaris sorokiniana
Text: as §1, §2

P. nodorum [3] = assay type: cell-based, Parastagonospora nodorum
Text: as §1, §2

C. cucumerinum = assay type: cell-based, Cladosporium cucumerinum
Text: as §1, §2

F. culmorum [4] = assay: Inhibition of spore (conidia) germination, microplate assay; assay type: cell-based, Fusarium culmorum; details: for IC50: WAMP-2-derived synthetic peptides, spore germination; for Inhibition of conidium germination: peptide alone, 400 μg/mL, mean of three experiments
Text: as §1, §2

B. sorokiniana [5] = assay: Checkerboard sensitization assay, WAMP-2 fragment with Folicur EC 250 (tebuconazole), spore germination; assay type: cell-based, Bipolaris sorokiniana; details: effective tebuconazole–WAMP-2 fragment composition; FFCI ≤ 0.5 = synergy; MFC by probit analysis
Text: as §1, with “control. […]” for “control.”
(§3) The fragments were tested at concentrations ranging between 5, 10 and 50 μg/mL against B. sorokiniana, A. alternata or other cereal-pathogenic fungi (F. culmorum, F. avenacenum and P. nodorum), respectively, to concentrations that produced the inhibitory effect of ≤50%. The sub-fungicidal concentrations of tebuconazole were preliminarily determined for each pathogen through serial double or fivefold dilutions. […]

F. avenaceum [6] = assay: Inhibition of spore (conidia) germination, microplate assay; assay type: cell-based, Fusarium avenaceum; details: for IC50: WAMP-2-derived synthetic peptides, spore germination
Text: as §1, §2

F. culmorum [7] = assay: Checkerboard sensitization assay, WAMP-2 fragment with Folicur EC 250 (tebuconazole), spore germination; assay type: cell-based, Fusarium culmorum; details: effective tebuconazole–WAMP-2 fragment composition; FFCI ≤ 0.5 = synergy; MFC by probit analysis
Text: as §1, with “control. […]” for “control.”
as §3

P. nodorum [8] = assay: as above; assay type: cell-based, Parastagonospora nodorum; details: effective tebuconazole–WAMP-2 fragment composition; FFCI ≤ 0.5 = synergy; MFC by probit analysis
Text: as §1, with “control. […]” for “control.”
as §3

A. alternata [9] = tested on: A. alternata
Text: as §1, with “control. […]” for “control.”
as §3

F. avenaceum [10] = assay: Checkerboard sensitization assay, WAMP-2 fragment with Folicur EC 250 (tebuconazole), spore germination; assay type: cell-based, Fusarium avenaceum; details: effective tebuconazole–WAMP-2 fragment composition; FFCI ≤ 0.5 = synergy; MFC by probit analysis
Text: as §1, with “control. […]” for “control.”
as §3

[11] = WAMP-2-derived synthetic peptides, spore germination
[12] = peptide alone, 400 μg/mL, mean of three experiments

Row | SMILES | IC50 (A. alternata [1]) | IC50 (F. oxysporum) | IC50 (B. sorokiniana [2]) | IC50 (P. nodorum [3]) | IC50 (C. cucumerinum) | IC50 (F. culmorum [4]) | Inhibition of conidium germination (F. culmorum [4]) | IC50 (F. avenaceum [6]) | also measured
1 | N=C(N)NCCC[C@H](NC(=O)[C@H](CS)NC(=O)CNC(=O)[C@H](CCCNC(=N)N)NC(=O)[C@H](CS)NC(=O)[C@H](CCC(N)=O)NC(=O)[C@H](CO)NC(=O)[C@H](CCC(N)=O)NC(=O)[C@H](CS)NC(=O)[C@H](CO)NC(=O)CNC(=O)[C@H](CCCCN)NC(=O)CN)C(=O)O [WAMP-C] (H-GKGSCQSQCRGCR-OH) | 550.4 ± 41.3 µg/mL (≈ 402 µM) | >700 µg/mL | 429.5 ± 51.5 µg/mL (≈ 314 µM) | 329.6 ± 7.9 µg/mL (≈ 241 µM) | 5.3 ± 0.1 µg/mL (≈ 3.87 µM) | >700 µg/mL | 23% |  | 
2 | CC(C)C[C@H](N)C(=O)N[C@@H](CS)C(=O)N[C@@H](CS)C(=O)NCC(=O)N[C@@H](CCCCN)C(=O)N[C@@H](Cc1ccc(O)cc1)C(=O)NCC(=O)N[C@@H](Cc1ccccc1)C(=O)N[C@@H](CS)C(=O)NCC(=O)N[C@@H](CO)C(=O)NCC(=O)O [WAMP-G1] (H-LCCGKYGFCGSG-OH) | >700 µg/mL | >700 µg/mL | 273.1 ± 45.7 µg/mL (≈ 229 µM) | >700 µg/mL | >700 µg/mL | >700 µg/mL |  |  | 
3 | C[C@H](NC(=O)[C@H](CC(=O)O)NC(=O)CNC(=O)[C@H](CO)NC(=O)CNC(=O)[C@H](CS)NC(=O)[C@H](Cc1ccccc1)NC(=O)CNC(=O)[C@H](Cc1ccc(O)cc1)NC(=O)[C@H](CCCCN)NC(=O)CNC(=O)[C@H](CS)NC(=O)[C@@H](N)CS)C(=O)N[C@@H](Cc1ccc(O)cc1)C(=O)N[C@@H](CS)C(=O)O [WAMP-G2] (H-CCGKYGFCGSGDAYC-OH; N-terminus and C-terminus assumed) |  |  |  |  |  | >700 µg/mL | 26.2% | 602.8 ± 3.1 µg/mL (≈ 393 µM) | FFCI (Fractional Fungicidal Concentration Index) (B. sorokiniana [5]): 0.13; IC50 (A. alternata [1]; [11]): 145.6 ± 29.4 µg/mL (≈ 94.9 µM); Inhibition of conidium germination (A. alternata [1]; [12]): 83.8%; FFCI (Fractional Fungicidal Concentration Index) (F. culmorum [7]): 0.02; IC50 (F. oxysporum; [11]): 391.2 ± 34.2 µg/mL (≈ 255 µM); IC50 (B. sorokiniana [2]; [11]): 195.2 ± 36.8 µg/mL (≈ 127 µM); IC50 (P. nodorum [3]; [11]): 424.1 ± 12.1 µg/mL (≈ 277 µM); FFCI (Fractional Fungicidal Concentration Index) (P. nodorum [8]): 0.04; IC50 (C. cucumerinum; [11]): 410.2 ± 29.1 µg/mL (≈ 267 µM); type of peptide–fungicide interaction (A. alternata [9]; compositions 100 + 0.05 and 100 + 0.1 µg/mL (two of nine)): additive effect; FFCI (Fractional Fungicidal Concentration Index) (A. alternata [9]; effective tebuconazole–WAMP-2 fragment composition, FFCI ≤ 0.5 = synergy, MFC by probit analysis): 0.05; FFCI (Fractional Fungicidal Concentration Index) (F. avenaceum [10]): 0.03
4 | C[C@H](N)C(=O)N[C@@H](CCC(N)=O)C(=O)N[C@@H](CCCNC(=N)N)C(=O)N[C@@H](CS)C(=O)NCC(=O)N[C@@H](CC(=O)O)C(=O)N[C@@H](CCC(N)=O)C(=O)N[C@@H](C)C(=O)N[C@@H](CCCNC(=N)N)C(=O)NCC(=O)N[C@@H](C)C(=O)N[C@@H](CCCCN)C(=O)N[C@@H](CS)C(=O)O [WAMP-N] (H-AQRCGDQARGAKC-OH) | 102.6 ± 19.6 µg/mL (≈ 75.2 µM) | 238.0 ± 32.4 µg/mL (≈ 175 µM) | 72.9 ± 12.4 µg/mL (≈ 53.5 µM) | 220.2 ± 13.5 µg/mL (≈ 161 µM) | 280.2 ± 29.7 µg/mL (≈ 205 µM) | 332.4 ± 26.1 µg/mL (≈ 244 µM) |  | >700 µg/mL | Inhibition of conidium germination (F. avenaceum [6]; [12]): 40.4%
